In patent publication US20220169989A1, “HUMAN CARDIOMYOCYTE SEPARATION REAGENT, CULTURE MEDIUM, SEPARATION METHOD, AND CULTURE METHOD” (FUWAI HOSPITAL CHINESE ACADEMY OF MEDICAL SCIENCES, priority 2019, published 2022):
Values after ≈ are worked out from the molar mass of the structure shown.

Tests used:
[1] = system: human cardiomyocytes; assay: Effect of myosin inhibitors BTS and MYK-461 on survival rate (Example 2.5); assay type: cell-based; conditions: MEM-HEPES-GlutaMAX + 10% FBS, p<0.05
Experimental: In order to explore whether there are other myosin ATPase inhibitors besides BDM and (−)-Blebbistatin that can improve the rate of rod-shaped cardiomyocytes, the effects of (−)-Blebbistatin, BTS, and MYK-461 on the activity of cardiomyocytes were compared. For the isolated human cardiomyocytes, MEM-4-hydroxyethyl piperazine ethanesulfonic acid-GlutaMAX medium comprising 10 μM (−)-Blebbistatin, BTS (at concentrations of 5 μM, 10 μM, 20 μM, 30 μM, 40 μM, or 50 μM, respectively), or MYK-461 (at concentrations of 0.5 μM, 1 μM, 2 μM, 5 μM, 10 μM, or 20 μM, respectively) respectively was used, and 10% fetal bovine serum, 100 U/ml penicillin and 100 μg/ml streptomycin were added to the medium.

[2] = system: human cardiomyocytes; assay: Culture test: concentrations of (−)-Blebbistatin and para-aminoblebbistatin (Example 2.1); assay type: cell-based
Experimental: 10% fetal bovine serum, 100 U/ml penicillin and 100 μg/ml streptomycin were added to M199 medium (purchased from Sigma), and the resulting medium was used as the basal medium. The experiment was divided into 9 groups, i.e. 0, 2.5, 5, 10, or 20 μM (−)-Blebbistatin, or 5 μM, 10 μM, 20 μM, or 50 μM para-aminoblebbistatin was added to the basal medium. The isolated human cardiomyocytes were divided into 9 groups, and the cells using 9 culture media were plated on a 48-well cell culture plate precoated with 200 μg laminin, and placed and cultured in a 37° C. cell incubator (with 5% CO2, and a relative saturated humidity of 95%) for 7 days, and the rates of rod-shaped cardiomyocytes were calculated.

[3] = system: human cardiomyocytes; assay: Human cardiomyocyte isolation test (calcium-free solution); assay type: cell-based
Experimental: The cardiomyocyte isolation process generally comprises tissue transport and sectioning, calcium-free perfusion, enzyme solution digestion and cell collection. In the process, the calcium-free Tyrode's solution (calcium-free solution) was the main reagent used in the isolation process, for calcium-free perfusion, enzyme solution digestion and cell collection. The test was conducted in this invention by reference to the cardiomyocyte isolation experimental protocol described in Liang Chen, Guang-ran Guo, Man Rao, Kai Chen, Jiang-ping Song and Sheng-shou Hu, “A Modified Method for Isolation of Human Cardiomyocytes to Model Cardiac Diseases.”, Journal of Translational Medicine (2018). Specific steps were as follows:
An excised left atrial appendage was immediately placed in an organ preservation solution (manufactured by the University of Wisconsin, USA) (about 4° C.), and quickly transferred it to a 60 mm cell culture dish in a super clean bench, an organ preservation solution (about 4° C.) was added, and the culture dish was placed on an ice box pre-cooled in a refrigerator at −20° C. Scissors were used to remove excess fat and trim it, the tissue was adhered to a specimen stage, and a microtome (Leica VT1200S, Germany) was used to slice the tissue (300 μm) which was then manually cut into pieces in the super clean bench. The cut atrial appendage pieces were divided into three groups, and the tissues were decalcified three times using the calcium-free solution of the present invention. 15-20 ml calcium-free solution was added to an Erlenmeyer flask for calcium-free perfusion for three times. The Erlenmeyer flask was shaken at room temperature, the calcium-free solution was replaced with fresh one after 2 min and 3 min respectively, and the third calcium-free perfusion time is 4 min. After finishing the calcium-free perfusion, the calcium-free solution was discarded and enzyme solution 1 (preheated to 37° C.) formulated from the corresponding calcium-free solution was added respectively. […] The enzyme solution was collected into a 15 ml centrifuge tube, fresh enzyme solution 1 was added to the Erlenmeyer flask, and digestion was still performed in the water bath kettle. The collected enzyme solution was placed in a pre-cooled 4° C. centrifuge (Eppendorf centrifuge 5804R, Germany) for centrifugation (100×g, 1 min), and the supernatant was discarded, followed by observing whether there were cardiomyocytes in the precipitate at the tube bottom, and determining the proportion of rod-shaped cells. The second digestion is the same as the first digestion. When the rate of rod-shaped cardiomyocytes contained in the precipitate is 70% or more, the enzyme solution 1 was replaced with enzyme solution 2 formulated from the calcium-free solution used in the enzyme solution 1, and digestion was continued. This time, cardiomyocytes in the turbid enzyme solution were collected by centrifugation (4° C., 100×g, 1 min) and then resuspending cells in a 3 ml transport solution.
In the process, the calcium-free solution was a calcium-free solution comprising 5 μM (−)-Blebbistatin, 10 μM (−)-Blebbistatin, and 20 mM BDM, respectively.

[4] = system: human cardiomyocytes; assay: Effect of coating composition on adherent cardiomyocytes (Example 2.2); assay type: cell-based; conditions: 72 hours; for number of rod-shaped cells: medium with 20 mM BDM
Experimental: 48-well culture plates were coated with the following reagents: laminin (Gibco, product number: 23017015; 50 μg/ml or 200 μg/ml, incubated overnight in a 37° C. incubator, and air dried), fibronectin (Sigma Aldrich, product number: F0895-2 MG; 5 μg/ml or 50 μg/ml, air dried), poly-L-lysine (Sigma Aldrich, product number: P04832-50 ML; 0.01%, incubated at room temperature for 5 min, air dried), and Matrigel (Corning, product number: 354234; incubated at 37° C. for 30 min). The culture medium used in this experiment was obtained by adding 20 mM BDM, 10% fetal bovine serum, 100 U/ml penicillin and 100 μg/ml streptomycin to M199 medium. The isolated cardiomyocytes were plated on coated 48-well culture plates, cultured for 72 hours (h), and photographed under a microscope. 4 fields of view were taken for each group for calculating the average number of rod-shaped cells, and the result was expressed as the mean±standard deviation.

[5] = water solubility, known property; cited from earlier work
[6] = system: human cardiomyocytes; assay: In vitro culture of isolated human cardiomyocytes after recalcification; assay type: cell-based; conditions: 10 μM in isolation and in M199 + 10% FBS culture; cultured for 6 days; higher than 20 mM BDM group, p<0.05
Experimental: In addition, in order to observe whether the cell states were different when the human cardiomyocytes isolated using two calcium-free solutions (20 mM BDM and 10 μM (−)-Blebbistatin) were cultured in vitro, we performed recalcification on the isolated human cardiomyocytes. Specifically, it was difficult for human cardiomyocytes to survive in an environment without calcium ions, and the present invention adopted a 5-step gradient recalcification method to restore the calcium ion concentration of human cardiomyocytes. The concentration gradients of CaCl2 (with a stock concentration of 30 mM) added to the cell collection solution were 0.08 mM (5 min), 0.25 mM (5 min), 0.5 mM (5 min), 1 mM (5 min), and 1.8 mM (15 min) in order. The human cardiomyocytes isolated in the 20 mM BDM group were cultured using M199 medium with addition of 10% fetal bovine serum (FBS) (note: the concentration percentage of fetal bovine serum in the examples and corresponding figures was volume percentage), 100 U/ml penicillin, 100 μg/ml streptomycin and 20 mM BDM. […]

CC(C)n1c(=O)cc(N[C@@H](C)c2ccccc2)[nH]c1=O [MYK-461]
percentages of rod-shaped cells ([1]; 0.5-20 μM vs 10 μM (−)-Blebbistatin): significantly lower than the percentage in the (−)-Blebbistatin group

Cc1ccc2c(c1)C(=O)[C@]1(O)CCN(c3ccc(N)cc3)C1=N2 [para-aminoblebbistatin]
viability / survival rate of human cardiomyocytes ([2]; 10 μM para-aminoblebbistatin vs 10 μM (−)-Blebbistatin, 7 days): no statistical difference
survival rate of cardiomyocytes ([2]; 5-50 μM, 7 days): can significantly improve the survival rate of cardiomyocytes

Cc1ccc(S(=O)(=O)NCc2ccccc2)cc1 [BTS, N-benzyl-p-toluenesulfonamide]
percentages of rod-shaped cells ([1]; 5-50 μM vs 10 μM (−)-Blebbistatin): significantly lower than the percentage in the (−)-Blebbistatin group

CC(=O)C(C)=NO [BDM, 2,3-butanedione monoxime]
rod-shaped cell morphology after isolation (photomicrographs) ([3]; 20 mM): not well maintained
normalized rod-shaped cell rate ([3]; 20 mM in calcium-free solution, reference of the normalization): 1.0

fibronectin
number of rod-shaped cells ([4]; coating 5 μg/ml, 50 μg/ml): significantly lower than that in the Matrigel group, 50 μg/ml laminin group and 200 μg/ml laminin group

Cc1ccc2c(c1)C(=O)[C@]1(O)CCN(c3ccccc3)C1=N2 [(−)-Blebbistatin]
solubility [5]: 10.9 ± 0.9 µM (≈ 3.19 µg/mL)
rod-shaped cell morphology after isolation (photomicrographs) ([3]; 5 μM and 10 μM): can maintain the long rod-shaped morphology of human cardiomyocytes
normalized rod-shaped cell rate ([3]; 5 μM and 10 μM in calcium-free solution, 20 mM BDM group normalized to 1.0, p<0.05): 1.2-1.5
lengths of human cardiomyocytes isolated ([3]; 5 μM and 10 μM vs 20 mM BDM group, p<0.05): remarkably longer than those in the 20 mM BDM group
rate of rod-shaped cardiomyocytes [6]: ≥ 80%
state of cardiomyocytes (culture images) ([2]; 5 μM and 10 μM vs 0 μM, after 1 day of culture): remarkably better than in the 0 μM group
long rod-shaped morphology of cardiomyocytes (culture images) ([2]; 10 μM compared with 5 μM, 1 day, more obvious after 7 days): better maintained the long rod-shaped morphology of cardiomyocytes
rate of rod-shaped cells ([2]; 2.5, 5, 10, 20 μM vs 0 μM, M199 + 10% FBS, 7 days, p<0.001): remarkably higher than that in the group without (−)-Blebbistatin

laminin
number of rod-shaped cells ([4]; coating 200 μg/ml): highest number of rod-shaped cells
adherence and growth of cardiomyocytes ([4]; coating, laminin 50-200 μg/ml): can allow cardiomyocytes to adhere and grow
